In patent publication US7781565B2 (priority 2006, dated 2010):
Entries after “also recorded” stand apart in the source; their conditions may differ.

tested on: NCI-60 cell lines; assay type: cell-based, human

| Substance | Cell Line with which the peptide (and its tripeptide motif) is associated | Cell Line the peptide is associated with (peptide recovered from phage library selection on this NCI-60 cell line) | Cell Line (NCI-60 cell line the peptide is associated with) | Cell Line (NCI-60 cell line the peptide and its motif are associated with) |
| --- | --- | --- | --- | --- |
| SWRPLVS | Hop-62-Lung | – | – | – |
| KAASTED | – | SN12C Renal | – | – |
| QLPGLLR | – | – | SNB-75 CNS | – |
| LVRASNG | – | – | – | SK-MEL-28 Melanoma |
| LGGAAVR | – | T-47D Breast | – | – |
| ARSSHRA | – | – | HCT-116 Colon | – |
| TATGGLL | – | – | – | OVCAR-8 Ovarian |
| SGSVNRG | RPMI-8226-Leukemia | – | – | – |
| AEYGRVL | – | – | – | M14 Melanoma |
| ESARGAL | – | – | – | OVCAR-4 Ovarian |
| GGPGLVM | – | – | – | OVCAR-4 Ovarian |
| GSVVSSW | – | ACHN Renal | – | – |
| WSSTASL | H460-Lung | – | – | – |
| FWRGSVP | A549-Lung | – | – | – |
| SEQRGGL | – | ACHN Renal | – | – |
| GGGLPVD | – | MDA-MB-231 Breast | – | – |
| FRVSLGY | – | ACHN Renal | – | – |
| DDGRVHR | – | BT-549 Breast | – | – |
| LRVRYAV | H322-Lung | – | – | – |
| RNSRAGL | – | UO31 Renal | – | – |
| LRARGGH | – | – | HT-29 Colon | – |
| DGAVILH | – | – | – | UACC 257 Melanoma |
| RGRVLLP | – | – | – | M14 Melanoma |
| AFGGGSM | – | SN12C Renal | – | – |
| GAGSGRT | – | HS 578 T Breast | – | – |
| WLDASLM | SR Leukemia | – | – | – |

| Substance | Cell Line with which the peptide (and its tripeptide motif) is associated | Cell Line the peptide is associated with (peptide recovered from phage library selection on this NCI-60 cell line) | Cell Line (NCI-60 cell line the peptide is associated with) | Cell Line (NCI-60 cell line the peptide and its motif are associated with) |
| --- | --- | --- | --- | --- |
| CMLRSAT | – | – | – | SK-MEL-2 Melanoma |
| CMAGSQD | – | SN12C Renal | – | – |
| VRGSVRA | H23-Lung | – | – | – |
| GLVRGTA | Molt-4-Leukemia | – | – | – |
| AGRRLRD | – | NCI/ADR-RES Breast | – | – |
| AFKTGGS | – | – | – | M14 Melanoma |
| AGSLSVF | CCRF-CEM Leukemia | – | – | – |
| YGQYGGL | – | – | HCT-15 Colon | – |
| VGLRCSV | – | BT-549 Breast | – | – |
| VAASVRE | – | – | – | OVCAR-3 Ovarian |
| GWGGGSA | – | – | MALME-3M Melanoma | – |
| ARVGVSP | H322-Lung | – | – | – |
| MPGSSRP | – | RXF393 Renal | – | – |
| PGGSDAA | – | – | SNB-19 CNS | – |
| ARRGLGL | – | – | SNB-75 CNS | – |
| SFAGRIL | – | T-47D Breast | – | – |
| LEGVRLF | Hop-62-Lung | – | – | – |
| VRANGGS | – | MDA-MB-231 Breast | – | – |
| GGFTGGL | – | – | SF-295 CNS | – |
| GVRSMPV | – | – | LOX-IMVI Melanoma | – |
| GSSYSGP | – | – | HCT-116 Colon | – |
| SRLRAGS | – | T-47D Breast | – | – |
| GRVGRDG | – | A498 Renal | – | – |
| VGIGAGG | – | T-47D Breast | – | – |
| AVSGRSL | – | – | – | M14 Melanoma |
| TLGGLRT | – | – | SF-295 CNS | – |

| Substance | Cell Line with which the peptide (and its tripeptide motif) is associated | Cell Line the peptide is associated with (peptide recovered from phage library selection on this NCI-60 cell line) | Cell Line (NCI-60 cell line the peptide is associated with) | Cell Line (NCI-60 cell line the peptide and its motif are associated with) |
| --- | --- | --- | --- | --- |
| TRVSGSG | – | BT-549 Breast | – | – |
| MSAFGRL | EKVX-Lung | – | – | – |
| RGGRSPS | – | – | HT-29 Colon | – |
| VWAGVLL | Hop-62-Lung | – | – | – |
| RWAGLVA | – | – | SF-295 CNS | – |
| FAGRVPS | RPMI-8226-Leukemia | – | – | – |
| DVWVAVS | – | – | – | OVCAR-4 Ovarian |
| LLSAARF | – | MDA-MB-231 Breast | – | – |
| RGVASRS | H460-Lung | – | – | – |
| TGLLRLY | – | RXF393 Renal | – | – |
| GRLRLTD | HL-60-Leukemia | – | – | – |
| PIGGLFG | – | ACHN Renal | – | – |
| VGSVSVN | A549-Lung | – | – | – |
| GSSRPSI | – | – | HCT-15 Colon | – |
| RLSALTD | – | – | HT-29 Colon | – |
| GGSFSGL | A549-Lung | – | – | – |
| LRIARGV | – | – | COLO-205-Colon | – |
| GAHGVRL | – | SN12C Renal | – | – |
| SDENGRL | HL-60-Leukemia | – | – | – |
| KGSVLML | – | NCI/ADR-RES Breast | – | – |
| DRFGSSA | – | ACHN Renal | – | – |
| TFAGRSL | – | – | – | A498 Renal |
| TSRGLRL | – | – | – | UACC 257 Melanoma |
| PLAVSMV | SR Leukemia | – | – | – |
| LRSGRGS | RPMI-8226-Leukemia | MDA-MB-435-Breast | – | – |
| RRFWAGL | H460-Lung | – | – | – |

| Substance | Cell Line with which the peptide (and its tripeptide motif) is associated | Cell Line the peptide is associated with (peptide recovered from phage library selection on this NCI-60 cell line) | Cell Line (NCI-60 cell line the peptide is associated with) | Cell Line (NCI-60 cell line the peptide and its motif are associated with) |
| --- | --- | --- | --- | --- |
| AEDSGGR | – | BT-549 Breast | – | – |
| SGVRPVI | – | – | – | SK-MEL-2 Melanoma |
| CVGLGCH | – | – | – | OVCAR-4 Ovarian |
| LLRRLSW | – | – | – | SK-MEL-2 Melanoma |
| WRGGLDR | – | MCF-7 Breast | – | – |
| YRVSSGS | – | – | SNB-75 CNS | – |
| ARLRASR | – | – | – | PC3 Prostate |
| ASPPLRS | – | – | – | A498 Renal |
| SVYALRS | – | – | COLO-205-Colon | – |
| RLRSYVA | – | – | – | 786-0 Renal |
| AVRGGRP | Hop-92-Lung | – | – | – |
| SHRSSTG | – | T-47D Breast | – | – |
| SKYRLRS | RPMI-8226-Leukemia | – | – | – |
| HADVLVS | – | – | – | DU-145 Prostate |
| AGPSRGP | – | – | – | UACC 257 Melanoma |
| LFGSSVS | – | SN12C Renal | – | – |
| GDRGVRG | – | A498 Renal | – | A498 Renal |
| SDRGLVV | – | – | HCT-15 Colon | – |
| MGVLTAE | – | – | SNB-19 CNS; also recorded: SF-539 CNS | – |
| DHVSGSV | – | CAIK-1 Renal | – | – |
| GFVAGRT | – | – | – | SK-MEL-5 Melanoma |
| KVVGRLG | – | – | HCT-116 Colon | – |
| SGVGGRY | – | – | – | UACC 257 Melanoma |
| ADGRLRY | – | – | KM-12C Colon | – |
| PSVGVRA | H322-Lung | – | – | – |
| VYYRLSA | SR Leukemia | – | – | – |

| Substance | Cell Line with which the peptide (and its tripeptide motif) is associated | Cell Line the peptide is associated with (peptide recovered from phage library selection on this NCI-60 cell line) | Cell Line (NCI-60 cell line the peptide is associated with) | Cell Line (NCI-60 cell line the peptide and its motif are associated with) |
| --- | --- | --- | --- | --- |
| LPCGGLA | – | – | SNB-19 CNS; also recorded: SF-539 CNS | – |
| AVSLVVL | – | – | – | OVCAR-8 Ovarian |
| ELHPRGV | K-562-Leukemia | – | – | – |
| GRVDPVD | – | T-47D Breast | – | – |
| VLRAASR | – | – | HT-29 Colon | – |
| YLAGGKA | – | – | – | IGROV1 Ovarian |
| AGSVTEQ | – | UO31 Renal | – | – |
| MVYSGVS | – | – | – | M14 Melanoma |
| CGAVAEW | – | – | – | PC3 Prostate |
| RPAGGRT | – | – | – | PC3 Prostate |
| AGGQSER | H226-Lung | – | – | – |
| AGGGPPA | EKVX-Lung | – | – | – |
| GLVRCVL | – | – | COLO-205-Colon | – |
| ALPGGGR | – | – | – | OVCAR-5 Ovarian |
| RWLSLLS | – | – | MALME-3M Melanoma | – |
| LGAGEGD | – | – | SNB-75 CNS | – |
| GAGRFPH | – | – | – | 786-0 Renal |
| WWAAVPG | – | SN12C Renal | – | – |
| GGLRGVR | A549-Lung | – | – | – |
| SGGGGLG | – | – | SF-268 CNS | – |
| SRYTLRS | – | – | – | IGROV1 Ovarian |
| VLRSALQ | – | – | KM-12C Colon | – |
| LIRAVSA | H460-Lung | – | – | – |
| ARLSLEL | – | TK-10 Renal | – | – |
| LSKGGSE | – | T-47D Breast | – | – |
| GSSELSR | – | – | – | DU-145 Prostate |
